Results published in patent US20170166555A1, “FUNCTIONALISED AND SUBSTITUTED INDOLES AS ANTI-CANCER AGENTS” (Novogen Limited, priority 2013, published 2017).

How the values were obtained:
[1] = test system: SK-N-SH neuroblastoma cells; experiment: Anti-proliferative assay, cell-titre luminescent reagent, 72 h (GVK-BIO); format: cell-based; conditions: Homo sapiens, SK-N-SH, 30, 3, 0.3 and 0.03 μM, linear regression (Tables 2-4)
Procedure, shortened: (§1)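 Cells were plated at predetermined densities in ATCC-recommended medium and allowed to attach for 24 h at 37 °C, 5% CO2 before dosing. The compound series was tested either at 30, 3, 0.3 and 0.03 μM with IC50 from linear regression of semi-log percent-of-control plots, or at 30, 10, 3, 1, 0.3 and 0.1 μM with EC50 from variable-slope sigmoidal nonlinear fits.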

[2] = test system: MDA-MB-231 triple negative breast cancer cells; experiment: as above; format: cell-based; conditions: Homo sapiens, MDA-MB-231, 72 h, 30, 3, 0.3 and 0.03 μM, linear regression (Tables 2-4)
Procedure, shortened: as §1

[3] = test system: SK-Mel-28 melanoma cells; experiment: as above; format: cell-based; conditions: Homo sapiens, SK-MEL-28, 72 h, 30, 3, 0.3 and 0.03 μM, linear regression (Tables 2-4)
Procedure, shortened: as §1

[4] = test system: PC3 prostate cancer cells; experiment: as above; format: cell-based; conditions: 30, 3, 0.3 and 0.03 μM, linear regression (Tables 2-4)
Procedure, shortened: as §1

[5] = test system: DU145 prostate cancer cells; experiment: as above; format: cell-based; conditions: Homo sapiens, DU-145, 72 h, 30, 3, 0.3 and 0.03 μM, linear regression (Tables 2-4)
Procedure, shortened: as §1

[6] = test system: A549 non-small cell lung carcinoma cells; experiment: as above; format: cell-based; conditions: Homo sapiens, A549, 72 h, 30, 3, 0.3 and 0.03 μM, linear regression (Tables 2-4), read-out: IC50/μM Lung (NSLC) A549
Procedure, shortened: as §1

[7] = test system: CaCo2 colorectal cancer cells; experiment: as above; format: cell-based; conditions: Homo sapiens, Caco-2, 72 h, 30, 3, 0.3 and 0.03 μM, linear regression (Tables 2-4)
Procedure, shortened: as §1

[8] = biological target: Tm5NM1 (Homo sapiens, UniProt P06753); experiment: Pyrene-based actin filament depolymerization assay; format: biochemical; conditions: for Rate of depolymerization of Tm5NM1-containing actin filaments in the presence of compound (in words): Tm5NM1 pre-incubated with 50 μM compound, compared to F-actin alone
Method: FIG. 4: Impact of compounds 4015 and 4093 on Tm5NM1-regulated actin-filament depolymerization kinetics. (A, C and E) Depolymerization time course of 6 μM actin filaments (35% pyrene labelled) diluted 12-fold into F-actin buffer (100 mM NaCl, 10 mM Tris-HCl pH 7.0, 2 mM MgCl2, 1 mM EGTA, 0.2 mM CaCl2, 0.2 mM ATP, 0.5 mM DTT, 0.01% (v/v) NaN3) in the presence or absence of saturating amounts (10 μM) of Tm5NM1. Final concentration of F-actin and Tm5NM1 was 0.5 μM and 0.83 μM respectively. Tm5NM1 was pre-incubated with 50 μM 4015, 4093 or 1% (v/v) DMSO prior to mixing with F-actin. Depolymerization data is normalized to the initial fluorescence value. (B, D and F) Initial rates (V0) of depolymerization for F-actin alone or Tm5NM1/F-actin, in the presence of compound 4015 or 4093. Initial rates of depolymerization were determined from the first 3600 s, fitted to a linear regression model. Data represents mean ±SEM, averaged from n>8 replicates. **** p<0.0001, ** p<0.005.
A brief overview and rationale of the assay is as follows: to promote depolymerization, pyrene-labelled actin filaments were diluted below the critical concentration of the pointed end (0.5 μM, as defined by Pollard et al., 1986). A decline in fluorescence was measured over time as actin monomers dissociate. […] Therefore, any compound, which interacts with, and impacts Tm5NM1 function, would nullify the protective effect of Tm5NM1 on actin depolymerization.
For all assays the depolymerization of F-actin alone and F-actin-coated with the human homologue of Tm5NM1 was used as a comparative control. Briefly, Tm5NM1 was pre-incubated with F-actin for 20 minutes prior to diluting the filaments, to allow for proper assembly of the Tm5NM1 polymer.
The depolymerization of F-actin alone and F-actin-coated with Tm5NM1 was then measured in the presence of test compound and initial rates of depolymerization were compared. Tm5NM1 was pre-incubated with 50 μM 4015 and 4093 prior to being added to the actin filaments as previously described. In the presence of compound 4015, the rate of depolymerization of Tm5NM1-containing actin filaments was increased.

Chain of Tm5NM1 (P06753 1-248 isoform P06753-2): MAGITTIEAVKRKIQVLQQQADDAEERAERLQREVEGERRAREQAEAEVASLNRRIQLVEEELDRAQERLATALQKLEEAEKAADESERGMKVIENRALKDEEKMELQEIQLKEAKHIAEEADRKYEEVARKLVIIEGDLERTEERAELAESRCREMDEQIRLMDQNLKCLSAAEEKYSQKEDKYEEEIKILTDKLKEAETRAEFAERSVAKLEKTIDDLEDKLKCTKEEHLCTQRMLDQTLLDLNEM

Row | Structure (SMILES) | IC50 [1] [µM] | IC50 [2] [µM] | IC50 [3] [µM] | IC50 [4] [µM] | IC50 [5] [µM] | IC50 [6] [µM] | IC50 [7] [µM] | Rate of depolymerization of Tm5NM1-containing actin filaments in the presence of compound (in words) [8] | Initial rate (V0) of depolymerization, F-actin alone ([8]; 50 μM compound, FIG. 4E and F) | Initial rate (V0) of depolymerization, Tm5NM1-containing actin ([8]; 50 μM compound, FIG. 4E and F)
1 | Cc1c(C)n(CCCN(C)C)c2ccc(CN3CCN(CCc4ccccc4)CC3)cc12 [Compound 4015, 3-(2,3-dimethyl-5-((4-phenethylpiperazin-1-yl)methyl)-1H-indol-1-yl)-N,N-dimethylpropan-1-amine] | 4.6 | 3 | 3.9 | 2.9 | 3.7 | 1.8 | 2.9 | increased |  | 
2 | Cc1c(C)n(CCCN(C)C)c2ccc(Oc3ccc(C(=O)Nc4ccc(F)cc4)cc3)cc12 [Compound 4093, 4-((1-(3-(dimethylamino)propyl)-2,3-dimethyl-1H-indol-5-yl)oxy)-N-(4-fluorophenyl)benzamide] | 2.5 | 2.1 | 0.9 | 1.2 | 1.7 | 3 | 1.8 | no significant difference | −0.30±0.029×10^−4 | −0.26±0.028×10^−4
